The results in this text go back to US5679638A, “Method for treating a tumor with a chemotherapeutic agent” (Biopure Corporation, priority 1993, dated 1997).

In assay [1] the test system is Lewis lung carcinoma lung metastases. The experiment in a line: Lung metastases of Lewis lung carcinoma. It counts as in vivo, mouse (male C57BL). More on the design: Lung Metastases: unit not given here. The method, then:
The Lewis lung tumor was carried in male C57BL mice (Taconic Laboratories, Germantown, N.Y.). For the experiments, 2×10^6 tumor cells prepared from a brei of several stock tumors were implanted subctaneously into the legs of male mice aged 8-10 weeks. […] Animals bearing Lewis lung tumors were treated daily with intraperitoneal Mino (10 mg/kg), Diflun (15 mg/kg) or Sulin (15 mg/kg) on days 4-18 following tumor implantation. When the tumors had reached a volume of approximately 100 mm^3 (day 7 after tumor cell implantation), cytotoxic therapy was initiated.
Therapy consisted of treatment with an antitumor alkylating agent, an antitumor antimetabolite, a non-steroidal anti-inflammatory drug (NSAID) and/or UPHS. […] CTX therapy consisted of three successive 150 mg/kg CTX doses administered by intraperitoneal injections on days 7, 9 and 11. BCNU therapy consisted of three successive 15 mg/Kg BCNU doses administered by intraperitoneal injections on days 7, 9 and 11. Therapy with the antimetabolite 5-fluorouracil(5-FU) consisted of 4 successive 40 mg/kg 5-FU doses administered by intraperitoneal injections daily on days 7 to 11. The 5-FU was purchased from Sigma Chemical Co., St. Louis, Mo. Fourteen doses of 10 mg/kg of NSAID were administered daily by intraperitoneal injections on days 4 to 18. UPHS was injected into the tail vein in 8 ml/kg doses daily on days 7-11. […]

The test system of assay [2] is intracranial 9L gliosarcoma. The experiment in a line: Life span of rats with intracranial 9L gliosarcoma. It counts as in vivo, rat (male Fischer 344). Conditions: for % Increased from Control (life span) / Survival Days: Table II; for % Increased from Control (life span) / Increase in life span with UPHS prior to the drug therapy: vs untreated control; for Survival Days: control 26 ± 2.2 days, CDDP 8 mg/kg day 7, BCNU 3 x 15, CTX or IFOS 3 x 100 mg/kg days 7, 9, 11, UPHS 8 ml/kg; for Significance of increase in life span, drug alone: 25% or more is therapeutically significant; for Effectiveness against intracranial 9L tumors: relative statement among BCNU, CTX, CDDP, IFOS. The procedure: The 9L gliosarcoma (9L) cells were obtained as a gift of 9L/SF gliosarcoma cells from Dr. Dennis Dean, University of California, San Francisco. These cells were maintained in culture in .varies.-MEM (Grand Island Biological Co., Grand Island, N.Y.) and supplemented with 10% fetal bovine serum (Sterile Systems, Inc., Logan, Utah) and with antibiotics. The 9L cells (4×10^4) in 10 μL of media without serum were implanted intracranially in male Fischer 344 rats (Taconic Farms, Germantown, N.Y.) weighing 200-250 gm on day 0. Each rat was anesthetized with sodium pentobarbital. A midline scalp incision was made and a hole was bored through the skull with 23 gauge needle at a point 2 mm lateral to the midline. The cell suspension was injected into the right frontal lobe at a depth of 3 mm from the dural surface. The needle was removed and the hole filled with dental cement. The scalp was sealed with a surgical clip. Two days later 9L cells (2×10^6) were implanted subcutaneously into the flank of each animal. When the tumors were approximately 100 mm^3 in volume, 7 days after tumor cell implantation, 8 ml/kg of UPHS was injected via the tail vein. After injecting the UPHS, administration of chemotherapeutic agents was initiated. […] BCNU therapy consisted of three 15 mg/kg BCNU doses administered by intraperitoneal injection days 7, 9 and 11. CTX and ifosfamide (IFOS) therapy consisted of three 100 mg/kg CTX or IFOS doses administered by intraperitoneal injection on days 7, 9 and 11. For the BCNU, CTX and IFOS therapies, UPHS was intravenously administered prior to each chemotherapeutic agent injection on days 7, 9 and 11. The IFOS was purchased from the Dana-Farber Cancer Institute. Survival of animals was monitored daily. Animals that were moribund or unable to reach food or water were killed by CO2 inhalation.
The effect of the treatments on the growth of the intracranial tumor was determined by the increase in life span of treated groups compared with the untreated controls. A percentage increase in life span of 25% or more is therapeutically significant.

[3] abbreviates: intracranial (life span) and subcutaneous (growth delay) 9L tumors.

Consider `N[C@@H](Cc1ccc(N(CCCl)CCCl)cc1)C(=O)O` [PAM, Melphalan], for which the figures for the “Lung Metastases” value in assay [1] (WITH UPHS) and in assay [1] (WITHOUT UPHS) were 10 and 13, respectively. Also, the “Lung Metastases (% Large)” value in assay [1] (WITH UPHS) was determined as 50%; in assay [1] (WITHOUT UPHS) it was 48%.
Consider `N.N.[Cl][Pt][Cl]` [CDDP, cis-diaminodichloroplatinum(II)], for which, in assay [2], the “% Increased from Control (life span)” value is 29%; the “Survival Days” value stood at 33.6 days; the “Increase in life span with UPHS prior to the drug therapy” value (“Increase in life span with UPHS prior” below) amounted to 46%; the “Significance of increase in life span, drug alone” value (“Significance of increase” for short) was “significant increase in life span”. Moreover, in assay [2], the “Effectiveness against intracranial 9L tumors” value (“Effectiveness” below) was “very effective against both subcutaneous and intracranial 9L tumors”. In addition, in assay [2] (setting [3]), the “Increase in therapeutic response upon addition of UPHS” value (shortened to “Increase … of UPHS”) is listed as “improved to a greater degree, as determined by increase in life span, against the intracranial tumor than against the subcutaneous tumor”. Moreover, in assay [1] (WITH UPHS), the “Lung Metastases” value is 13 and the “Lung Metastases (% Large)” value is listed as 40%. In assay [1] (WITHOUT UPHS), the “Lung Metastases” value is recorded as 13 and the “Lung Metastases (% Large)” value came out at 58%.
As to `O=NN(CCCl)C(=O)NCCCl` [BCNU, N,N-bis(2-chloroethyl)-N-nitrosourea], in assay [2], the “% Increased from Control (life span)” value is on record as 22%; the “Survival Days” value is 31.6 days; the “Increase in life span with UPHS prior” value was 38%; the “Significance of increase” value is listed as “did not reach significance”. Moreover, in assay [2], the “Effectiveness” value is on record as “moderately effective against the intracranial 9L tumors”. Further, in assay [2] (rat, in vivo, sc), the “Increase … of UPHS” value is reported as “improved to a greater degree, as determined by increase in life span, against the intracranial tumor than against the subcutaneous tumor”. Also, in assay [1] (WITH UPHS), the “Lung Metastases” value is 9 and the “Lung Metastases (% Large)” value was 61%. Further, in assay [1] (WITHOUT UPHS), the “Lung Metastases” value is listed as 15.5 and the “Lung Metastases (% Large)” value came out at 53%.
In the case of `O=P1(N(CCCl)CCCl)NCCCO1` (stereo not shown) [CTX, Cyclophosphamide], in assay [2], the “% Increased from Control (life span)” value is on record as 20%; the “Survival Days” value came to 31.3 days; the “Increase in life span with UPHS prior” value was 43%; the “Significance of increase” value is listed as “did not reach significance”. Moreover, the “Effectiveness” value in assay [2] is “least effective treatments for intracranial 9L tumors”. The “Increase … of UPHS” value in assay [2] (setting [3]) was “greatest increases in therapeutic response upon addition of UPHS”. In assay [1] (WITH UPHS), the “Lung Metastases” value turned out to be 8 and the “Lung Metastases (% Large)” value stood at 40%. Moreover, in assay [1] (WITHOUT UPHS), the “Lung Metastases” value is reported as 12 and the “Lung Metastases (% Large)” value is 40%.
